Data reported in US8802411B2, “ADP detection based luminescent phosphotransferase or ATP hydrolase assay” (Promega Corporation, priority 2008, dated 2014).

Assays:
adenylate cyclase (AC) = assay: Adenylate cyclase assay and inhibition; format: biochemical; settings: for use as inhibitors of adenylate cyclase: calmodulin antagonists, when converting ADP to ATP, FIG. 5
Method: Activity of various adenylyl cyclases (ACs) was measured at 30° C. for 30 minutes in the presence of 60 mM Tris pH 7.5, 10 mM MgCl2, 40 nM calmodulin and variable ATP concentrations. Except for those experiments related to AC titration, 100 ng of the AC was used. When used, the calmodulin antagonists were prepared according to the manufacturer's recommendation and were added directly to the AC reaction when direct inhibition was assessed or to the reaction converting ADP to ATP to assess AC inhibition during ATP formation.

pyruvate kinase = target: T1, pyruvate kinase (Oryctolagus cuniculus, UniProt P11974); assay: ADP to ATP conversion by pyruvate kinase (ADP detection assay); format: biochemical, rabbit
T1 construct: Pyruvate kinase from rabbit muscle (Sigma Catalog number P9136); purchased Sigma P9136; host or cells: rabbit muscle
T1 sequence (P11974 whole entry): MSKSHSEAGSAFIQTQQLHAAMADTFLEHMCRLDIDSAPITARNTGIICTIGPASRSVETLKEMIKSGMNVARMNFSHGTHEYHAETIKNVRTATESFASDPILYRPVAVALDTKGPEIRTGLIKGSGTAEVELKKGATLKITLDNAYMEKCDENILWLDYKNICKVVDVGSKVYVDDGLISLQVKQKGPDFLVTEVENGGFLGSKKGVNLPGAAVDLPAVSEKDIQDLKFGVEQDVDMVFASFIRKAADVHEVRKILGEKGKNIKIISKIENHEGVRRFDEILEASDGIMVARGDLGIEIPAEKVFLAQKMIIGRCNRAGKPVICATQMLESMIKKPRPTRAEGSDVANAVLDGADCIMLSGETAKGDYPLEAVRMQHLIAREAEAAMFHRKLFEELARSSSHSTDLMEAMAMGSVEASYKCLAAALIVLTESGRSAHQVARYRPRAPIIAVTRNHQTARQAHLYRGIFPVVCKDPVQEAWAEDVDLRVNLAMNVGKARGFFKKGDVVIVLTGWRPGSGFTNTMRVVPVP
Method: Pyruvate kinase from rabbit muscle (Sigma Catalog number P9136), myokinase from chicken muscle (Sigma Catalog number M5520), myokinase from rabbit muscle (Sigma Catalog number M3003), creatine phosphokinase from bovine heart (Sigma Catalog number C7886), creatine phosphokinase from rabbit brain (Sigma Catalog number C6638), and creatine phosphokinase from rabbit muscle (Sigma Catalog number C3755) were obtained from Sigma.
80 μL of Reagent 2 (800 μM phosphoenolpyruvate and 800 mU pyruvate kinase in 80 μL Kinase-Glo® Max (Promega Corp.)) were added simultaneously to the kinase or ATPase reaction and incubated for 30-60 minutes at room temperature. The data were collected using a plate reading luminometer (GloMax® 96 Microplate Luminometer).
When the assay was performed in 3 steps, the following modification was introduced. After the ATP depletion step, 20 μL of pyruvate kinase (PK) reagent (40 mM Tris pH 7.0, 335 mM KCl, 500 μM calmidazolium, 500 μM phosphoenolpyruvate, 15 mM EDTA, 0.3 mg/mL BSA and 300-600 mU pyruvate kinase) was added, the reaction incubated for 5-10 minutes, and 100 μL Kinase-Glo® Max (Promega Corp.) was added to detect the ATP produced. After a 10 minute incubation, the plate was read on a plate reading luminometer (GloMax 96 Microplate Luminometer; Promega Corp.).

Row | SMILES | inhibition of AC (adenylate cyclase (AC); FIG. 6) | use as inhibitors of adenylate cyclase (adenylate cyclase (AC)) | interference with pyruvate kinase conversion of ADP to ATP (pyruvate kinase; even at high calmidozolium concentrations, FIG. 6) | interference with the pyruvate kinase reaction (pyruvate kinase; inhibitor used to stop or tested in PKA kinase reaction, FIG. 13)
1 | Clc1ccc(C(c2ccc(Cl)cc2)n2cc[n+](CC(OCc3ccc(Cl)cc3Cl)c3ccc(Cl)cc3Cl)c2)cc1 (centres unmarked) [calmidazolium] | inhibited | may be used as inhibitors of adenylate cyclase | without any significant interference | –
2 | CN[C@@H]1C[C@H]2O[C@@](C)([C@@H]1OC)n1c3ccccc3c3c4c(c5c6ccccc6n2c5c31)C(=O)NC4 [staurosporine] | – | – | – | did not interfere significantly
3 | CN1CCN(CCCN2c3ccccc3Sc3ccc(C(F)(F)F)cc32)CC1 [trifluoroperazine] | – | may be used as inhibitors of adenylate cyclase | – | –
